Test results as given in patent publication US11207289B2, “Use of benzofuran lignans to induce IL-25 expression and suppress mammary tumor metastasis” (ACADEMIA SINICA, priority 2016, dated 2021).

What was measured:
[1] = MTT assay, cytotoxic effect on WI38; format: cell-based; conditions: human, WI38 cells (human fibroblast cell line)
Procedure: M10, WI38, SKBR3, and MDA-MB-231 cells (1×10^5 cells/ml) dispensed in 96-well plates were incubated with vehicle or test compounds (Q2-3) for 24 h or 72 h in corresponding basal medium in a 5% CO2 incubator. To evaluate the effect of secreted IL-25 from Q2-3-treated fibroblasts on growth activity of mammary tumor cells, 4T1 and MDA-MB-231 cells (1×10^4 cells/ml) dispensed in 96-well plates were incubated with control medium or different fibroblast conditioned media (200 μl/ml) which was changed daily for 5 days. All treatments were performed in triplicate cell cultures. The growth activity of cells was assayed using a 3-(4, 5-dimethythiazol-2-yl)-2, 5-diphenyl tetrazolium bromide (MTT; Sigma-Aldrich) colorimetric method. The absorbance at 570 nm (A570) was measured using a multiwall scanning spectrophotometer.
FIG. 1 is a schematic depiction of cytotoxic effects of dihydrobenzofuran lignan (Q2-3) on breast tumor cells. (a): Scheme for synthesis of Q2-3 (methyl (E)-3-[2-(3,4-dihydroxyphenyl)-7-hydroxy-3-methoxycarbonyl-2,3-dihydro-1-benzofuran-5yl]prop-2-enoate) from two caffeic acid methyl ester molecules. […] The beginning cytotoxic dosage of Q2-3 was detected at 0.3 μM, with >50% kill rate on SKBR3 and MDA-MB-231 cells. […]

human IL-25 = assay: 3-D culture, western blot of IL-25 in WI38 fibroblasts and WI38-CM; format: cell-based
Procedure: To mimic the tumor microenvironment, a 3-dimensional (3-D) co-culture system was employed for the maintenance of mammary tumor cells and tumor-associated fibroblasts in adjacent collagen gels as reported in Rajan et al., Nature protocols, 1, 2753-2758 (2006). More specifically, rat tail collagen solution dissolved in acetic acid was neutralized by 1 N NaOH and then mixed with 10×PBS at 4° C. in a ratio of 9:1. To construct solid tumor-like cell mass, mouse (4T1 or TS/A cells) or human (MCF-7 or MDA-MB-231 cells) mammary tumor cells in each correspondent culture medium (1×10^6 cells/ml) were mixed with 4 mg/ml collagen solution in a ratio of 1:1. Four drops of collagen-tumor cell mixture ([…]) were immediately and separately loaded on culture substratum in each well of a 6-well plate. The plates were then turned-over and kept in CO2 incubator at 37° C. for collagen gelation. […]
To pull down and deplete IL-25 protein molecules in 3T3 or MDA-MB-231 cell conditioned media, the Dynabeads antibody coupling kit (Life Technology; 14311D) was used according to the manufacturer's recommendations, yielding 10 mg/ml anti-IL25 antibody (ProteinTech, Chicago, Ill.)-coupled beads. […] The antibody-pulled down proteins from 3T3-CM, NHDF-CM or WI38-CM, were detected for the content of secreted IL-25 protein in each conditioned medium using western blot analysis. […]

Jurkat cells = conditions: cited from earlier work
K562 cells = conditions: cited from earlier work

## COC(=O)/C=C/c1cc(O)c2c(c1)C(C(=O)OC)C(c1ccc(O)c(O)c1)O2 (centres unmarked) [Q2-3, methyl(E)-3-[2-(3,4-dihydroxyphenyl)-7-hydroxy-3-methoxycarbonyl-2,3-dihydro-1-benzofuran-5yl]-prop-2-enoate]
[1]
  viability at 2 µM: ≥ 80%
Human IL-25; 3-D culture, treatment 24 h or 72 h
  expression of IL-25 in human (WI38) fibroblasts: increased
Human IL-25; WI38-CM
  level of secreted IL-25 in fibroblast-conditioned medium vs untreated: significantly higher
Jurkat cells
  anti-proliferation effect: significant anti-proliferation effect
K562 cells
  anti-proliferation effect: significant anti-proliferation effect
